Data on 3 molecules can be found in ChEMBL document CHEMBL5696442, “Discovery of type II inhibitors of TGFβ-activated kinase 1 (TAK1) and mitogen-activated protein kinase kinase kinase kinase 2 (MAP4K2)” (J Med Chem, 2015).

Test [1] deals with T1, Phosphatidylinositol 5-phosphate 4-kinase type-2 beta (Homo sapiens) (UniProt P78356).
T1 sequence (whole entry): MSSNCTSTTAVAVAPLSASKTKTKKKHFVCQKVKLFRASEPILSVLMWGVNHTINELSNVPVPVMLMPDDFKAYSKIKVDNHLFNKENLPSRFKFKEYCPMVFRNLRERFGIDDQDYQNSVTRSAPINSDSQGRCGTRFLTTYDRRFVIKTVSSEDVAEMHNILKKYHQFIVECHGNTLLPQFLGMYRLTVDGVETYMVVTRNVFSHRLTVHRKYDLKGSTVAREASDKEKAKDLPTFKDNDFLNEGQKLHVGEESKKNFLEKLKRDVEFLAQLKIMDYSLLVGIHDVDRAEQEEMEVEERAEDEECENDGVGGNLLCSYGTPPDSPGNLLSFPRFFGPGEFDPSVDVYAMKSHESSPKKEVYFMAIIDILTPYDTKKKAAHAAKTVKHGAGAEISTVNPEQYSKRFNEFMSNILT
The test is described as follows: Inhibition of PIP4K2B ATP labeling site harbouring TVKHGAGAEISTVNPEQYSK in human Huh-7 cell lysate at 1 uM by KiNativ Profiling analysis relative to control. The class given is subcellular.

The target of test [2] is T2, Inhibitor of nuclear factor kappa-B kinase subunit epsilon (Homo sapiens) (UniProt Q14164).
T2 sequence (whole entry): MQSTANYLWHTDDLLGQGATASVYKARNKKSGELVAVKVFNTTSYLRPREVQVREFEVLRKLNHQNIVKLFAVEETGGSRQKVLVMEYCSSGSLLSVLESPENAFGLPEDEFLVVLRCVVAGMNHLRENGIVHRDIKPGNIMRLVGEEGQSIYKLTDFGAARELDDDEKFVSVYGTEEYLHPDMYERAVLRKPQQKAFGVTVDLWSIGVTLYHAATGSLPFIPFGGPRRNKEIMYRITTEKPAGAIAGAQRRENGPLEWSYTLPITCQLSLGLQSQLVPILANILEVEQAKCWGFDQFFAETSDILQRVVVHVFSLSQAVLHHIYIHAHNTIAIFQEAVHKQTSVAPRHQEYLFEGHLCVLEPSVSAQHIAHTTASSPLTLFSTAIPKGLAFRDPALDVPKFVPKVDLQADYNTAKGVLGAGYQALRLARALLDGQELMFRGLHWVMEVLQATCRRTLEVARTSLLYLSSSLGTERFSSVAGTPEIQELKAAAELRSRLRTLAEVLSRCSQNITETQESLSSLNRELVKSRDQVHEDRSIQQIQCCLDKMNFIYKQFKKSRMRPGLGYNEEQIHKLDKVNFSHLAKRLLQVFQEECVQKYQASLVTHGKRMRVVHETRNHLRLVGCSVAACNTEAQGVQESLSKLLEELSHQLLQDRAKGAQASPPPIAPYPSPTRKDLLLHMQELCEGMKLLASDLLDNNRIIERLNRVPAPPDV
The test can be described thus: Inhibition of IKKe Lys2 labeling site in human Huh-7 cell lysate at 1 uM by KiNativ Profiling analysis relative to control. The class given is subcellular.

Test [3] concerns the target Serine/threonine-protein kinase VRK2 (Homo sapiens) (UniProt Q86Y07). The test is described as follows: Inhibition of VRK2 Lys2 labeling site in human Huh-7 cell lysate at 1 uM by KiNativ Profiling analysis relative to control. The class given is subcellular.
Test [4] has as its target T3, Dual specificity mitogen-activated protein kinase kinase 5 (Homo sapiens) (UniProt Q13163).
T3 sequence (whole entry): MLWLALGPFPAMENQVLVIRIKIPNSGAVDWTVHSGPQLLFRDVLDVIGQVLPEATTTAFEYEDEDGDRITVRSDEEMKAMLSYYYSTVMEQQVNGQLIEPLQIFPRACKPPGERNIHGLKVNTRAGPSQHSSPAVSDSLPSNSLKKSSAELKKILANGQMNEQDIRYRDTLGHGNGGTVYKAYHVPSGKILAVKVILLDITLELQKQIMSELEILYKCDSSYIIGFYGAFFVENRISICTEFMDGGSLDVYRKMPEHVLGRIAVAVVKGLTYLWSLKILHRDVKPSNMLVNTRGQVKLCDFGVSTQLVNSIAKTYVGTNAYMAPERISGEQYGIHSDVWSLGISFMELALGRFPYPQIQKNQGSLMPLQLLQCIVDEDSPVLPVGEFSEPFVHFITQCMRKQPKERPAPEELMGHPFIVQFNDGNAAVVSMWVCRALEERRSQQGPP
The test can be described thus: Inhibition of MEK5 (unknown origin) at 1 uM by Ambit Kinomescan binding assay relative to control; values are per cent of control.

A short description of test [5]: Inhibition of KHS1 Lys1 labeling site in human A-375 cells at 5 uM by KiNativ Profiling analysis relative to control. To be noted: condition cancer.
Test [6] addresses T4, Serine/threonine-protein kinase Nek9 (Homo sapiens) (UniProt Q8TD19).
T4 sequence (whole entry): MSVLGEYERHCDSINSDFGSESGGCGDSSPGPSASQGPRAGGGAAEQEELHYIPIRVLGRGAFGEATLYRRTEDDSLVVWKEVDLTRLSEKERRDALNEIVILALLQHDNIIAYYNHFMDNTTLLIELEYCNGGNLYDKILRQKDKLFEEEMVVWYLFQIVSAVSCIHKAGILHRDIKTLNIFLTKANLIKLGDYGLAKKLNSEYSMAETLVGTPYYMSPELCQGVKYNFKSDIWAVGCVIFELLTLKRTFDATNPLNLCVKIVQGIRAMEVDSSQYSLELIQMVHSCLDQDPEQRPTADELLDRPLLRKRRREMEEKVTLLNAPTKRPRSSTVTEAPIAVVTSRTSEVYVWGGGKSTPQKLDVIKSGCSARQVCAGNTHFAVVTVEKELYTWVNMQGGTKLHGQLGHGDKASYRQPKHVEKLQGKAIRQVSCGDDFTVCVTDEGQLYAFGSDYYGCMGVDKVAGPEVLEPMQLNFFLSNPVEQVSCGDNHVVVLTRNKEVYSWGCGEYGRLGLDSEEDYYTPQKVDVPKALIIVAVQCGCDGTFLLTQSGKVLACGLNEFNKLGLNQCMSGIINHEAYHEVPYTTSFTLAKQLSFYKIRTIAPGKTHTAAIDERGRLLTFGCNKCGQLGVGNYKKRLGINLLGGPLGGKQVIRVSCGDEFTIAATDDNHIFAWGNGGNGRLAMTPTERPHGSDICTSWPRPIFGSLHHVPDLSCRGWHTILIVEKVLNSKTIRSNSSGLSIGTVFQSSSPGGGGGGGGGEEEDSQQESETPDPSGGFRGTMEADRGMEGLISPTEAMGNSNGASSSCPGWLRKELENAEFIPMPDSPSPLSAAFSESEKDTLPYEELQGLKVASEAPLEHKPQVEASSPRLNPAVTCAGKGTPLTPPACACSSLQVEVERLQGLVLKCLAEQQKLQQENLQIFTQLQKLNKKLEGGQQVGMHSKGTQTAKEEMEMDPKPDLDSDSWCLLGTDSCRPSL
The test can be described thus: Inhibition of NEK9 (unknown origin) at 10 uM by Ambit Kinomescan binding assay.

For test [7], the target named is DNA-PK/Ku70/Ku85 (Homo sapiens) (UniProt P78527+P12956+P13010). The test is described as follows: Inhibition of DNAPK ATP labeling site harbouring KGGSWIQEINVAEKNWYPR in human A-375 cells at 5 uM by KiNativ Profiling analysis relative to control. The class given is cell-based.

SMILES strings stand for the structures. Active and inactive are the calls of the source. The calls are words filed in the database; no cut-off is given here.

Chain of Serine/threonine-protein kinase VRK2 (Homo sapiens) (Q86Y07 whole entry): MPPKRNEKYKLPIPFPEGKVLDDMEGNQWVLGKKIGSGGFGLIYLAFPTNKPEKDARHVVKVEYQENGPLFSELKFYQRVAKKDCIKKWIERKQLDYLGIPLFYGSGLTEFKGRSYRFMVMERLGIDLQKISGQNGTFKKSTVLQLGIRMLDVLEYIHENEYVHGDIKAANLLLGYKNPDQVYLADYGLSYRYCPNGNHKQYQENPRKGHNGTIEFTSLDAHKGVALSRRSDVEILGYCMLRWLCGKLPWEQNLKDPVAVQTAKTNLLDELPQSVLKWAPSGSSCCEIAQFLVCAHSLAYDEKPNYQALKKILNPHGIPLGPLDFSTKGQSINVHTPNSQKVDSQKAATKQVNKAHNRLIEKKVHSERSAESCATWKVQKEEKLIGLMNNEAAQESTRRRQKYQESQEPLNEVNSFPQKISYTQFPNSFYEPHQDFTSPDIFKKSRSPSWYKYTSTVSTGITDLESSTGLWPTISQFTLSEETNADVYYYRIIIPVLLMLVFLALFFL

As for `CNc1cc(Oc2cc(C(=O)Nc3cc(N4CCN(C)CC4)cc(C(F)(F)F)c3)ccc2C)ncn1`, the inhibition in test [1] was -5.4%; in test [2], -5.8%; in test [3], -0.9%.

For the molecule `CCN1CCN(Cc2ccc(NC(=O)c3ccc(C)c(/C=C/c4cnc5[nH]ccc5c4OC)c3)cc2C(F)(F)F)CC1`, in test [4], the residual activity came out at 1.4%.

Turning to `CCN1CCN(Cc2ccc(NC(=O)c3ccc(C)c(Oc4ccnc5[nH]ccc45)c3)cc2C(F)(F)F)CC1`, the inhibition at 5 µM in test [5] is 61.3%. For the same molecule, the inhibition entry in test [6] is “inactive”. Further, the inhibition in test [7] was 7.9%.
